Test in all cases: NCI tumour cell line growth inhibition, 48 h
Test [1] deals with HOP-92 NSCLC.
In test [2] the test system is MALME-3M melanoma.
For test [3], the system named is SW-620 colon.
Test [4] deals with NCI-H460 lung.
In test [5] the test system is EKVX NSCLC.
The test system of test [6] is SK-OV-3 ovarian.
Test [7] has as its system HT29 colon.
Test [8] deals with SK-MEL-5 melanoma.
In test [9] the test system is MDA-MB-435.
In test [10] the test system is SK-MEL-28 melanoma.

Several values for one entry are separate records, joined by “and”; a condition that tells them apart may be missing. Identical values can stand only once.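 Following 48 hours of exposure in 96-well plates, responses at five concentrations were used to interpolate endpoints linearly. Here, GI50 denotes the concentration required for 50% inhibition of growth. TGI: concentration producing complete growth inhibition.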

As for `O=C(N/N=C\c1cc(Br)cc(Br)c1O)N/N=C/c1cc(Br)cc(Br)c1O`, the GI50 in test [1] is 1.85 µM; in [2], 11.5 µM; in [3], 4.52 µM; in test [4] it was 3.11 µM; in test [5] it was 4.09 µM; in test [6], 5.21 µM. For the same molecule, the GI50 in test [7] was 5.93 µM; in [8], 1.83 µM; in test [9] it was 2.67 µM; in test [10], 2.79 µM. Further, the TGI amounted to 16.4 µM in test [1]; 31.3 µM in test [2]; 19.6 µM in test [3]; 11.5 µM in test [4]; 17.8 µM in test [5]; 16.6 µM in test [6]. For the same molecule, the TGI in [7] was found to be 18.3 µM; in test [8] it was 4.69 µM; in test [9], 17.8 µM; in test [10], 16.1 µM.
Turning to `C/C(=C\COc1ccc2ccc(=O)oc2c1)CCC(=O)C(C)(C)O`, the TGI was 64.5 µM in test [1]; over 100 µM in test [2]; 38.9 µM in [3]; over 100 µM in test [4]; over 100 µM in test [5]; 99.4 µM in [6]. For the same molecule, the TGI was 52.7 µM in test [7], 30.2 µM in [8], 59.2 µM in test [9] and over 100 µM in [10].
For `NS(=O)(=O)c1ccc(N=Nc2cc3ccccc3c(C(=O)O)c2O)cc1`, the TGI is over 100 µM in [1]; over 82 µM in [2]; over 100 µM in test [3]; over 87.5 µM in test [4]; over 100 µM in test [5]; over 100 µM in test [6]. For the same molecule, the TGI in test [7], in test [8], in [9] and in test [10] was over 100 µM throughout.
Regarding `COc1cc2cc(Oc3ccc(NC(=O)Nc4cc(C(F)(F)F)cc(C(F)(F)F)c4)cc3)c(C)nc2cc1OCCN1CCCCC1`, the GI50 is 1.24 µM in test [1]; 1.59 µM in [2]; 1.79 µM in test [3]; 1.79 µM in test [4]; 1.81 µM in [5]; 2.04 µM in [6]. Moreover, the GI50 in test [7] was 1.83 µM; in test [8], 1.69 µM; in [9], 1.78 µM; in [10] it was 1.66 µM. Further, the TGI in [1] turned out to be 2.57 µM; in test [2] it was 3.02 µM; in test [3], 3.27 µM; in [4], 3.35 µM; in test [5], 3.44 µM; in [6], 3.9 µM. The TGI was 3.37 µM in [7], 3.08 µM in test [8], 3.22 µM in test [9] and 3.07 µM in test [10].
For the molecule `CCCCCCCC(=O)O[C@H]1[C@H]2[C@@H](CC1(C)C)C(=O)[C@]13O[C@H]1C(=O)[C@]1(CO1)[C@]23C`, the GI50 in test [1] was 2.83 µM; in test [3] it was 1.39 µM; in [4] it was 20 µM; in [5] it was 36.9 µM; in test [6] it was 20.7 µM; in test [8], 15.3 µM. Also, the GI50 in test [10] was 5.87 µM. The TGI was 6.03 µM and 4.81 µM in test [1]; 10.9 µM and 6.34 µM in [2]; 3.27 µM and 2.74 µM in [3]; 42.6 µM and 12.8 µM in test [4]; 62.1 µM and 10 µM in [5]; 44.6 µM and 61.9 µM in [6]. Also, the TGI in test [7] was 14.4 µM and 14.9 µM; in [8] it was 29.9 µM and 10.5 µM; in test [9] it was 75 µM; in test [10], 12.7 µM and 6.55 µM.
For the molecule `CCN(CC)CCn1nc2c3c(cccc3c1=O)-c1ccccc1-2`, the GI50 was 3.11 µM in test [1]; 1.67 µM in [2]; 1.89 µM in test [3]; 1.49 µM in [4]; 2.33 µM in test [5]; 2.13 µM in test [6]. Moreover, the GI50 in [7] is 1.89 µM; in test [8], 1.51 µM; in test [9] it was 2.96 µM; in [10] it was 2.56 µM. The TGI is 24.9 µM in [1]; 7.37 µM in [2]; over 50 µM in [3]; over 50 µM in [4]; 38.7 µM in test [5]; over 50 µM in test [6]. The TGI in test [7] was 13.2 µM; in test [8], 4.08 µM; in test [9], 10.5 µM; in test [10], 15.6 µM.
Consider `COC(=O)CCCCCCCCC(=O)c1c(C)[nH]c(/C=C2\N=C(c3ccc[nH]3)C=C2OC)c1C`, for which the GI50 is 4.73 µM in [1]; over 22.9 µM in [2]; over 62 µM in test [3]; 3.57 µM in test [4]; over 100 µM in [5]; over 100 µM in [6]. Further, the GI50 in test [7] was 32.4 µM; in test [8], 1.97 µM; in test [9] it was 3.92 µM; in test [10], 14.9 µM. Moreover, the TGI was over 30.5 µM in test [1]; over 100 µM in test [2]; over 100 µM in test [3]; over 100 µM in test [4]; over 100 µM in test [5]; over 100 µM in test [6]. The TGI in test [7] was over 100 µM; in test [8] it was 5.67 µM; in test [9], over 100 µM; in test [10] it was over 100 µM.
On to `O=C(Nc1ccc(I)cc1F)c1cc(F)ccc1O`, for which the GI50 is 0.169 µM in test [1]; 0.315 µM in test [2]; 0.777 µM in test [3]; 0.456 µM in test [4]; 1.4 µM in test [5]; 0.465 µM in test [6]. Further, the GI50 in test [7] is 3.44 µM; in [8], 0.229 µM; in test [9], 0.512 µM; in test [10] it was 0.353 µM. For the same molecule, the TGI in test [1] is 0.504 µM; in test [2], 1.53 µM; in test [3] it was over 34.7 µM; in test [4], over 27.7 µM; in [5] it was 9.01 µM; in test [6], 2.59 µM. Moreover, the TGI in test [7] is over 100 µM; in test [8], 0.556 µM; in [9] it was 4.45 µM; in [10], 1.91 µM.
Consider `Fc1ccc(-c2ncn(C3CCNCC3)c2-c2ccnc(Oc3ccc(Oc4ccccc4)cc3)n2)cc1`, for which the GI50 in test [1] is 0.651 µM; in test [2], 4.68 µM; in test [3] it was 3.55 µM; in [4] it was 3.66 µM; in [5] it was 3.87 µM; in test [6], 4.41 µM. For the same molecule, the GI50 in test [7] was 2.13 µM; in test [8], 3.55 µM; in test [9] it was 3.92 µM; in test [10] it was 4.27 µM. Besides, the TGI in test [1] was determined as 4.15 µM; in [2], 8.95 µM; in [3], 7.06 µM; in test [4], 7.28 µM; in [5], 7.74 µM; in test [6] it was 7.9 µM. The TGI in test [7] amounted to 5.23 µM; in [8], 6.82 µM; in [9], 8.46 µM; in test [10], 7.82 µM.
Take `CN1CCN(Cc2ccc(NC(=O)c3cncc(C#Cc4cncc5[nH]ncc45)c3)cc2C(F)(F)F)CC1`: the GI50 in test [1] was 0.156 µM; in test [2], 0.0987 µM; in test [3] it was 0.611 µM; in [4] it was 1.19 µM; in test [5] it was 1.46 µM; in test [6] it was 1.4 µM. Further, the GI50 in test [7] is 0.251 µM; in test [8] it was 1.17 µM; in test [9] it was 0.556 µM; in test [10], 0.208 µM. Moreover, the TGI in [1] came to 1.26 µM; in test [2] it was 0.383 µM; in test [3], 3.64 µM; in test [4], 5.6 µM; in test [5], 6.27 µM; in test [6], 4.89 µM. Moreover, the TGI in test [7] was 6.24 µM; in test [8], 4.58 µM; in test [9], 5.33 µM; in [10], 1.96 µM.
In the case of `CCc1cc(Nc2nccc(-c3c(-c4ccc(OC)c(C(=O)Nc5c(F)cccc5F)c4)nc4ccccn34)n2)c(OC)cc1N1CCC(N2CCN(S(C)(=O)=O)CC2)CC1`, the GI50 in test [1] is 1.14 µM; in test [2] it was over 100 µM; in test [3], over 100 µM; in test [4] it was over 71.7 µM; in test [5], over 100 µM; in test [6] it was over 100 µM. The GI50 in test [8] was over 64.8 µM; in test [9], over 100 µM; in [10] it was over 100 µM. Besides, the TGI in test [1] is over 80 µM; in test [2] it was over 100 µM; in test [3], over 100 µM; in test [4], over 100 µM; in test [5], over 100 µM; in [6] it was over 100 µM. The TGI in test [7], in test [8], in test [9] and in [10] was over 100 µM each time.

Values taken from PubChem BioAssay (NCI).
